One data set has as its system MM1.S cells. Description: In vitro anti-proliferation test on MM1.S cells (CellTiter-Glo). In kind it is cell-based. Conditions: Homo sapiens, 48 h, 2 days incubation, cell viability. On the procedure: This test was aimed to investigate the inhibitory effect of a compound on cell proliferation by determining the effect of the compound on cell viability in tumor cell line MM1.S in vitro.
MM1.S cells were seeded into a black 96-well cell culture plate at a density of 7,000 cells per well, and then the plate was incubated overnight in an incubator with 5% CO2 and 100% relative humidity at 37° C. A solution of a test compound in DMSO was added to the cell culture wells at a certain concentration (0.3 to 2000 nM), and then the culture plate was placed back to the incubator, and a vehicle control (containing DMSO with no compound) and a blank control were provided.
The culture plate was incubated in the incubator with 5% CO2 and 100% relative humidity at 37° C. for 2 days. The sample was treated using the Promega CellTiter-Glo Luminescent Cell Viability Assay Kit (Promega-G7571) standard method, and a luminescent signal was detected on the SpectraMax i3x of Molecular Devices plate reader. The inhibition rate of the test compound was calculated through the following equation using original data: […]
RLU represents a relative luminescence intensity.
(In general: In ATP-based viability assays light output follows the ATP content of the culture.)

Data set [1] in a line: Liver microsome stability test, rat. It counts as in vitro ADME. The following applies: rat liver microsomes; SD rat (R) liver microsome; read-out: Liver microsome stability (T1/2, min). On the procedure:
(§1) A test compound was incubated with CD-1 mouse liver microsome, SD rat liver microsome, and human liver microsome, respectively, to evaluate the stability of the test compound.
(§2) Preparation of a solution sample of the test compound: 10 mM solution (5 μL) of a compound prepared in the Example in DMSO was added to a mixed solvent (450 μL) of DMSO (45 μL), methanol and water (a volume ratio of methanol to water was 1:1) to prepare a 100 μM solution of the test compound; and 50 μL of the 100 μM solution of the test compound was added to 450 μL of 100 mM potassium phosphate buffer to obtain a 10 μM solution of the test compound.
(§3) The 10 μM solution of the test compound was pre-incubated with the microsome from the above three species for 10 minutes, respectively, and then a working solution of a reduced nicotinamide adenine dinucleotide phosphate (NADPH) regeneration system was added to the incubation plate at each time point to initiate the reaction, and finally a stop solution (100% ACN) was added to the reaction plate to terminate the reaction at 0, 5, 10, 20, 30 and 60-minute. The test compound was determined by LC-MS/MS method.
In general terms: Microsomes from liver hold many membrane-bound enzymes, among them those of drug oxidation.

Data set [2] can be described thus: Liver microsome stability test, mouse. Conditions: mouse liver microsomes; CD-1 mouse (M) liver microsome; read-out: Liver microsome stability (T1/2, min). In kind it is in vitro ADME. As for the experimental part: as §1, §2, §3
The next data set relates to MDR1. Description: Cell membrane permeability test on MDR1-MDCK II cells. It counts as in vitro ADME. The following applies: dog; for Papp A→B at 150 min, 2 μM / Papp B→A at 150 min, 2 μM: pH=7.4; for efflux ratio at 150 min, 2 μM: pH 7.4, Papp B to A/Papp A to B. As for the experimental part:
Cell membrane permeability of a test compound was evaluated on MDR1-MDCK II cells.
A test compound (10 mM solution of the compound in DMSO) was diluted with a transfer buffer (HBSS with 10 mM Hepes, pH=7.4) to prepare a sample having a final concentration of 2 μM, followed by bidirectional (A-B and B-A) administration. After administration, the cell plate was incubated in an incubator with 5% CO2 and a saturated humidity at 37° C. for 150 minutes. After the 150-minute incubation, the sample was collected, and the concentration of the test compound in the transfer sample was semi-quantitatively determined by LC/MS/MS method.

A short description of data set [3]: Liver microsome stability test, human. Conditions: human liver microsomes; human (H) liver microsome; read-out: Liver microsome stability (T1/2, min). In kind it is in vitro ADME. On the procedure: as §1, §2, §3

Regarding `CC(C)CC(NC(=O)[C@H](CC1CC1)NC(=O)[C@@H]1CCN1c1ccc(C(F)(F)F)cn1)B(O)O` (some centres unmarked) [WX-306], the midpoint of inhibition in the data set on MM1.S cells, the IC50, lay at 0.0082 µM. Also, the half-life in data set [1] came to 37.4 min; in data set [2], 14 min; in data set [3] it was 17.8 min. This compound also displayed a Papp A→B at 150 min, 2 μM with MDR1 of 0.3 ×10⁻⁶ cm/s. In the data set on MDR1, this compound came in with a Papp B→A at 150 min, 2 μM of 17.8 ×10⁻⁶ cm/s. Besides, the efflux ratio at 150 min, 2 μM with MDR1 came to 59.3.
In turn, `CC(C)CC(NC(=O)CNC(=O)[C@@H]1CCN1c1ccc(C(F)(F)F)cc1Cl)B(O)O` (some centres unmarked) [WX-351] yielded an IC50 in the data set on MM1.S cells of 0.0459 µM.
Compound `CC(C)CC(NC(=O)CNC(=O)[C@@H]1CCN1c1ccc(F)cn1)B(O)O` (single isomer, unassigned) [WX-317] had an IC50 with MM1.S cells of 0.032 µM. Also, the half-life turned out to be 35.5 min in data set [1], 27.1 min in data set [2] and 77 min in data set [3]. In addition, the Papp A→B at 150 min, 2 μM in the data set with MDR1 turned out to be 0.01 ×10⁻⁶ cm/s. For the same compound, the Papp B→A at 150 min, 2 μM in the data set with MDR1 amounted to 0.05 ×10⁻⁶ cm/s. Also, in the data set on MDR1, the efflux ratio at 150 min, 2 μM worked out at 5.
`CC(C)CC(NC(=O)[C@H](Cc1ccccc1)NC(=O)[C@@H]1CCN1c1nccc(-c2ccccc2)n1)B(O)O` (some centres unmarked) [WX-174] showed an IC50 in the data set on MM1.S cells of 0.0058 µM. Besides, the half-life came out at 1.6 min in data set [1], 0.8 min in data set [2] and 3.5 min in data set [3]. The compound also gave a Papp A→B at 150 min, 2 μM with MDR1 of 0.44 ×10⁻⁶ cm/s. In addition, in the data set with MDR1, the Papp B→A at 150 min, 2 μM came to 18.4 ×10⁻⁶ cm/s. Moreover, in the data set on MDR1, the efflux ratio at 150 min, 2 μM amounted to 41.8.
The compound `CC(C)CC(NC(=O)CNC(=O)[C@@H]1CCN1c1ccc(F)cc1Cl)B(O)O` (some centres unmarked) [WX-381] gave an IC50 in the data set with MM1.S cells of 0.119 µM.
On the same count and under the same terms, in the case of `CC(C)CC(NC(=O)CNC(=O)[C@@H]1CCN1c1cc(F)c(F)cc1F)B(O)O` (some centres unmarked) [WX-391] it was 0.0054 µM.
In the data set with MM1.S cells, `CC(C)CC(NC(=O)CNC(=O)[C@@H]1CCN1c1ccc(F)cc1F)B(O)O` (single isomer, unassigned) [WX-333] gave an IC50 of 0.001 µM. In addition, the half-life in data set [1] amounted to 43.1 min. Moreover, the half-life in data set [2] came out at 67.4 min. Also, in the data set on MDR1, the Papp A→B at 150 min, 2 μM was found to be 0.38 ×10⁻⁶ cm/s; the Papp B→A at 150 min, 2 μM amounted to 7.32 ×10⁻⁶ cm/s; the efflux ratio at 150 min, 2 μM turned out to be 19.3. In addition, the half-life in data set [3] stood at 67.4 min.
As to `CC(C)CC(NC(=O)CNC(=O)[C@@H]1CCN1c1ccc(F)cc1)B(O)O` (single isomer, unassigned) [WX-301], the IC50 with MM1.S cells came to 0.0058 µM. Further, the results for the half-life in data set [1], in data set [2] and in data set [3] were 42.1 min, 43.5 min and 74.3 min, respectively.
As for `CC(C)CC(NC(=O)[C@H](Cc1ccccc1)NC(=O)[C@@H]1CCN1c1ccc(F)cc1)B(O)O` (single isomer, unassigned) [WX-193], the midpoint of inhibition in the data set with MM1.S cells, the IC50, lay at 0.0082 µM. Further, the half-life in data set [1] is 4.6 min. Besides, in data set [2], the half-life turned out to be 2.7 min. In the data set with MDR1, the Papp A→B at 150 min, 2 μM stood at 0.1 ×10⁻⁶ cm/s; the Papp B→A at 150 min, 2 μM amounted to 13.1 ×10⁻⁶ cm/s; the efflux ratio at 150 min, 2 μM was 131. The half-life in data set [3] is 4.8 min.
For `CC(C)CC(NC(=O)CNC(=O)[C@@H]1CCN1c1nc(C(F)(F)F)cs1)B(O)O` (some centres unmarked) [WX-327], inhibition in the data set with MM1.S cells was half-maximal at 0.0242 µM (IC50). In data set [1], the half-life amounted to 26.5 min. In data set [2], the half-life was found to be 37.7 min. For the same compound, in the data set on MDR1, the apparent permeability from apical to basolateral (Papp A→B) at 150 min, 2 μM is 0.24 ×10⁻⁶ cm/s; the apparent permeability from basolateral to apical (Papp B→A) at 150 min, 2 μM turned out to be 2.24 ×10⁻⁶ cm/s; the efflux ratio at 150 min, 2 μM turned out to be 9.33. Further, the half-life in data set [3] was 75 min.
In the case of `CC(C)CC(NC(=O)CNC(=O)[C@@H]1CCN1c1ccc(Cl)cc1C(F)(F)F)B(O)O` (some centres unmarked) [WX-385], in the data set on MM1.S cells, the IC50 turned out to be 0.104 µM.
`CC(C)CC(NC(=O)CNC(=O)[C@@H]1CCN1c1ccc(C(F)(F)F)cc1F)B(O)O` (some centres unmarked) [WX-355] came in with an IC50 with MM1.S cells of 0.0288 µM.
The compound `CC(C)CC(NC(=O)[C@H](C)NC(=O)[C@@H]1CCN1c1ncc(F)cn1)B(O)O` (single isomer, unassigned) [WX-313] returned a half-inhibitory concentration (IC50) in the data set on MM1.S cells of 0.0245 µM. In addition, the half-life is 57.2 min in data set [1], 52.5 min in data set [2] and greater than 145 min in data set [3]. Also, the Papp A→B at 150 min, 2 μM in the data set on MDR1 was determined as 0.2 ×10⁻⁶ cm/s. Also, the Papp B→A at 150 min, 2 μM in the data set on MDR1 was determined as 1.29 ×10⁻⁶ cm/s. Moreover, the efflux ratio at 150 min, 2 μM in the data set with MDR1 came to 7.16.
Regarding `CC(C)CC(NC(=O)CNC(=O)[C@@H]1CCN1c1ccc(C#N)cc1F)B(O)O` (some centres unmarked) [WX-365], in the data set on MM1.S cells, the IC50 stood at 0.0906 µM.
Regarding `CC(C)CC(NC(=O)[C@H](CC1CC1)NC(=O)[C@@H]1CCN1c1nc(C(F)(F)F)cs1)B(O)O` (some centres unmarked) [WX-308], half-maximal inhibition with MM1.S cells (IC50) was put at 0.0089 µM. For the same compound, the half-life in data set [1] was determined as 26.8 min; in data set [2], 20.1 min; in data set [3] it was 27.4 min. The compound further gave a Papp A→B at 150 min, 2 μM in the data set on MDR1 of 0.2 ×10⁻⁶ cm/s. Further, the Papp B→A at 150 min, 2 μM in the data set with MDR1 stood at 15.3 ×10⁻⁶ cm/s. The efflux ratio at 150 min, 2 μM with MDR1 is 76.5.
Consider `CC(C)CC(NC(=O)CNC(=O)[C@@H]1CCN1c1ccc(C(F)(F)F)cn1)B(O)O` (some centres unmarked) [WX-329], for which the IC50 with MM1.S cells was 0.0115 µM. Also, in data set [1], the half-life stood at 43.3 min. Also, in data set [2], the half-life is 40.3 min. Besides, in the data set with MDR1, the Papp A→B at 150 min, 2 μM amounted to 0.27 ×10⁻⁶ cm/s; the Papp B→A at 150 min, 2 μM stood at 3.74 ×10⁻⁶ cm/s; the efflux ratio at 150 min, 2 μM was determined as 13.8. The half-life in data set [3] came to 51.5 min.
In the case of `CC(C)CC(NC(=O)CNC(=O)[C@@H]1CCN1c1ccc(C(F)(F)F)nn1)B(O)O` (some centres unmarked) [WX-367], half-maximal inhibition in the data set with MM1.S cells (IC50) was put at 0.183 µM.
Same read-out and setting: next, `CC(C)CC(NC(=O)CNC(=O)[C@@H]1CCN1c1c(F)cc(Cl)cc1F)B(O)O` (some centres unmarked) [WX-373]: 0.0267 µM; `CC(C)CC(NC(=O)CNC(=O)[C@@H]1CCN1c1ncc(F)cc1F)B(O)O` (some centres unmarked) [WX-379]: 0.024 µM.
Take `CC(C)CC(NC(=O)[C@H](CC1CC1)NC(=O)[C@@H]1CCN1c1ncc(F)cn1)B(O)O` (some centres unmarked) [WX-260]: in the data set on MM1.S cells, the concentration for half-maximal inhibition (IC50) is 0.011 µM. Besides, in data set [1], the half-life is greater than 145 min. In addition, the half-life in data set [2] came out at 84.8 min. For the same compound, in the data set on MDR1, the Papp A→B at 150 min, 2 μM came to 0.3 ×10⁻⁶ cm/s; the Papp B→A at 150 min, 2 μM was 5.1 ×10⁻⁶ cm/s; the efflux ratio at 150 min, 2 μM came out at 17. For the same compound, in data set [3], the half-life turned out to be 108 min.

The term IC50 denotes the concentration that inhibits the measured activity by half. Read a high IC50 as weaker potency. As a reminder, the Papp A→B is the apparent permeability from the apical to the basolateral side of a cell layer. A low value points to slow passage. A word on the Papp B→A: it is the apparent permeability from the basolateral to the apical side of a cell layer. What is called efflux ratio is the permeability from basolateral to apical divided by that in the opposite direction, in the common usage.

These data come from US11014943B2, “Azetidine derivative” (CHIA TAI TIANQING PHARMACEUTICAL GROUP CO., LTD., priority 2017, dated 2021).
